Source: US20100324067A1, “TETRACYCLIC DIPYRANO-COUMARIN COMPOUNDS WITH ANTI-HIV AND ANTI-MYCOBACTERIUM TUBERCULOSIS ACTIVITIES” (priority 2007, published 2010)
In brackets after ≈: the same amount, converted by molar mass. Read-outs that look alike come from different tables or passages of the source.

Legend:
[1] = test system: HIV-1; assay: Inhibitory activity against HIV-1 (literature method, Chen et al. J Virol 1997); details: for EC50: Human immunodeficiency virus 1; for inhibition at 1 µM: Human immunodeficiency virus 1, read-out: Anti-HIV (%, 1.0 μM); for Therapeutic index (TI) = 50% cytotoxicity doses/50% effective dose: value in brackets after EC50; for Anti-HIV (%, 1.0 μM): compound at 1.0 μM
Procedure: Inhibitory activity of the coumarin derivatives of the present invention against HIV-1.
Inhibitory activity of the compounds against HIV-1 is assayed using the literature method. The experimental conditions, procedures, reagents and so on of the experiment are referred to the reference of “ZHIWEI CHEN, PEI ZHOU, DAVID D. HO, et al. Genetically divergent strains of simian immuno-deficiency virus use CCR5 as a coreceptor for entry. Journal of Virology, 1997, 71(4): 2705-2714”.

[2] = test system: host cells of the virus; assay: Cell toxicity to the host cells of the virus at 10 μM; format: cell-based
[3] = test system: Mycobacterium tuberculosis H37Rv (ATCC 27294); assay: Microplate Alamar Blue Assay (MABA) in BACTEC 12B medium (TAACF screen); format: cell-based
[4] = read-out: anti-TB active compound (MIC90 less than 10 μg/mL), classification

Compound | inhibition at 1 µM [1] | melting point | Cell toxicity (10 μM) [2] | further results
CCCc1cc(=O)oc2c3c(c4c(c12)OC(C)(C)C=C4)OC(C)(C)CC3=O [Example 12, 6,6,10,10-tetramethyl-4-n-propyl-2H,6H,12H-benzo[1,2-b:3,4-b′:5,6-b″]-tripyranyl-2,12-dione] | 68.3% | 110 to 112 °C |  | EC50 [1]: 640 nM; Therapeutic index (TI) = 50% cytotoxicity doses/50% effective dose [1]: 47-140
CCCCC1C=Cc2c3c(c4oc(=O)cc(CCC(F)(F)F)c4c2O1)C(=O)CC(C)O3 (stereo not drawn) [Example 73, 4-(3,3′,3″-trifluoro-n-propyl)-6-n-butyl-10-methyl-2H,6H,12H-benzo[1,2-b:3,4-b′: 5,6-b″]-tripyranyl-2,12-dione] | 53.6% | 129 to 130 °C | − | 
CCCc1cc(=O)oc2c3c(c4c(c12)OC(C)(C)C=C4)OC(CBr)CC3=O (stereo not drawn) [Example 57] | 93.5% |  | − | EC50 [1]: 2.85 nM; anti-HIV-1 activity in vitro compared to (+)-calanolide A ([1]; in words): much higher inhibitory activity; therapeutic index, in words ([1]; in words): high therapeutic index; Therapeutic index (TI) = 50% cytotoxicity doses/50% effective dose [1]: > 10526; IC50 [3]: 0.825 µg/mL (≈ 1.9 µM); MIC90 ([3]; MABA, H37Rv, read-out: MIC90): 1.75 µg/mL (≈ 4.05 µM)
CCCC1C=Cc2c3c(c4oc(=O)cc(CC)c4c2O1)C(=O)CC(C)O3 (stereo not drawn) [Example 47] | 97% | 119 to 121 °C |  | IC50 [3]: 1.49 µg/mL (≈ 4.21 µM); MIC90 ([3]; MABA, H37Rv, read-out: MIC90): 1.73 µg/mL (≈ 4.88 µM); MIC90 [3, 4]: < 10 µg/mL
CCCc1cc(=O)oc2c3c(c4c(c12)OC(c1ccccc1[N+](=O)[O-])C=C4)OC(C)CC3=O (stereo not drawn) [Example 97] | 52.6% | 216 to 218 °C | − | 
CCc1cc(=O)oc2c3c(c4c(c12)OC(c1ccccc1)C=C4)OC(C)CC3=O (stereo not drawn) [Example 45] | 96.4% | 126 to 128 °C |  | IC50 [3]: 2.01 µg/mL (≈ 5.18 µM); MIC90 ([3]; MABA, H37Rv, read-out: MIC90): 2.73 µg/mL (≈ 7.02 µM); MIC90 [3, 4]: < 10 µg/mL
CCCCCC1CC(=O)c2c(c3c(c4c(CCC)cc(=O)oc24)OC(C)(C)C=C3)O1 (stereo not drawn) [Example 15, 6,6-dimethyl-4-n-propyl-10-n-pentyl-2H,6H,12H-benzo[1,2-b:3,4-b′:5,6-b″]-tripyranyl-2,12-dione] | 46.4% | 128 to 131 °C |  | 
CCCCc1cc(=O)oc2c3c(c4c(c12)OC(c1ccccc1)C=C4)OC(C)CC3=O (stereo not drawn) [Example 44] | 96.4% | 137 to 139 °C |  | 
CCCc1cc(=O)oc2c3c(c4c(c12)OC(c1ccccc1[N+](=O)[O-])CC4OCC)OC(C)CC3=O (stereo not drawn) [Example 98, 8-ethoxyl-4-n-propyl-6-(o-nitrophenyl)-10-methyl-4-n-propyl-7,8,10,11-tetrahydro-6H-benzo[2,3-f;2′,3′-h]-tripyranyl-2,12-dione] | 61% | 237 to 240 °C |  | 
CCCc1cc(=O)oc2c3c(c4c(c12)OC(C)C=C4)OCC(C)C3=O (stereo not drawn) [Example 75, 6,11-dimethyl-4-n-propyl-2H,6H,12H-benzo[1,2-b:3,4-b′:5,6-b″]-tripyranyl-2,12-dione] | 62.4% | 135 to 137 °C |  | IC50 [3]: 1 µg/mL (≈ 2.95 µM); MIC90 ([3]; MABA, H37Rv, read-out: MIC90): 1.89 µg/mL (≈ 5.56 µM); MIC90 [3, 4]: < 10 µg/mL
CCCc1c(Cl)c(=O)oc2c3c(c4c(c12)OC(c1ccccc1)C=C4)OC(C)CC3=O (stereo not drawn) [Example 50, 1-methyl-4-n-propyl-3-chloro-6-phenyl-2H,6H,12H-benzo[1,2-b:3,4-b′:5,6-b″]-tripyranyl-12-dione] | 96.3% | 152 to 154 °C |  | IC50 [3]: 6.07 µg/mL (≈ 13.9 µM); MIC90 ([3]; MABA, H37Rv, read-out: MIC90): 6.7 µg/mL (≈ 15.3 µM); MIC90 [3, 4]: < 10 µg/mL
CCCc1cc(=O)oc2c1c1c(c3occc(=O)c32)C=CC(C)(C)O1 [Example 13, 6,6-dimethyl-4-n-propyl-2H,6H,12H-benzo[1,2-b:3,4-b′:5,6-b″]-tripyranyl-2,12-dione] | 64.9% | 102 to 104 °C | − | 
CCCc1cc(=O)oc2c3c(c4c(c12)OC(C)(C)C=C4)OC(C)CC3O (single isomer, unassigned; (+)) [(+)-11-demethyl Calanolide A, reference compound] |  |  |  | Anti-HIV (%, 1.0 μM) [1]: 75%; Cell toxicity (10 μM) ([2]; class symbol, share of host cells of the virus died at 10 μM compound): ++ (10-80%); Cell toxicity (10 μM), number printed before the class symbol ([2]; host cells of the virus died at 10 μM compound): 54%
CCCc1cc(=O)oc2c3c(c4c(c12)OC(C)(C)C=C4)OC(C)CC3=O (stereo not drawn) [Example 29, 6,6,10-trimethyl-4-n-propyl-2H,6H,12H-benzo[1,2-b:3,4-b′:5,6-b″]-tripyranyl-2,12-dione] |  | 112 to 115 °C | − | Anti-HIV (%, 1.0 μM) [1]: 73.1%
CCCc1cc(=O)oc2c3c(c4c(c12)OC(C)(C)C=C4)OCC(C)C3=O (stereo not drawn) [Example 30, 6,6,11-trimethyl-4-n-propyl-2H,6H,12H-benzo[1,2-b:3,4-b′:5,6-b″]-tripyranyl-2,12-dione] | 38.9% | 133 to 134 °C |  | 
CCCc1c(Cl)c(=O)oc2c3c(c4c(c12)OC(C)(C)C=C4)OC(C)CC3=O (stereo not drawn) [Example 20, 6,6,10-trimethyl-3-chrolo-4-n-propyl-2H,6H,12H-benzo[1,2-b:3,4-b′:5,6-b″]-tripyranyl-2,12-dione] | 68.1% |  | − | EC50 [1]: 370 nM; Therapeutic index (TI) = 50% cytotoxicity doses/50% effective dose [1]: 243-730
CCCCC1C=Cc2c3c(c4oc(=O)cc(CCC)c4c2O1)C(=O)C(C)CO3 (stereo not drawn) [Example 77, 4-n-propyl-6-n-butyl-11-methyl-2H,6H,12H-benzo[1,2-b:3,4-b′:5,6-b″]-tripyranyl-2,12-dione] | 35.2% | 144 to 145 °C |  | 
CC1CC(=O)c2c(c3c(c4c(CN5CCN(C)CC5)cc(=O)oc24)OC(C)(C)C=C3)O1 (stereo not drawn) [Example 7, 6,6,10-trimethyl-4-p-methylpiperazidinylmethylene-10,11-dihydro-6H-[2,3-f:2′,3′-h]-tri pyranyl-2,12-dione] | 48.3% | 238 to 239 °C | − | 
C/C=C/C1C=Cc2c3c(c4oc(=O)cc(CCC)c4c2O1)C(=O)C(C)CO3 (stereo not drawn) [Example 76, 4-n-propyl-6-propenyl-11-methyl-2H,6H,12H-benzo[1,2-b:3,4-b′:5,6-b″]-tripyranyl-2,12-dione] | 37.8% | 165 to 166 °C | − | 
CCCc1cc(=O)oc2c3c(c4c(c12)OC(C)(C)C=C4)OC(c1ccc(C)cc1)CC3=O (stereo not drawn) [Example 17, 6,6-dimethyl-4-n-propyl-10-p-methyl-phenyl-2H,6H,12H-benzo[1,2-b:3,4-b′:5,6-b″]-tripyranyl-2,12-dione] | 57% | 174 to 176 °C | − | 
CCCc1c(F)c(=O)oc2c3c(c4c(c12)OCC(C)=C4)OC(C)CC3=O (stereo not drawn) [Example 92] | 47.1% | 122 to 124 °C | − | 
C/C=C/C1C=Cc2c3c(c4oc(=O)c(Cl)c(CCC)c4c2O1)C(=O)CC(C)O3 (stereo not drawn) [Example 86, 4-n-propyl-6-propenyl-3-chloro-10-methyl-2H,6H,12H-benzo[1,2-b:3,4-b′:5,6-b″]-tripyranyl-2,12-dione] | 57.3% | 142 to 144 °C | − | 
CCCc1c(Cl)c(=O)oc2c3c(c4c(c12)OC(C)C=C4)OC(C)CC3=O (stereo not drawn) [Example 81, 6,10-dimethyl-4-n-propyl-3-chloro-2H,6H,12H-benzo[1,2-b:3,4-b′:5,6-b″]-tripyranyl-2,12-dione] | 55.7% | 129 to 131 °C | − | 
CCCc1c(Cl)c(=O)oc2c3c(c4c(c12)OCC(C)=C4)OC(C)CC3=O (stereo not drawn) [Example 91, 4-n-propyl-3-chloro-7,10-dimethyl-2H,6H,12H-benzo[1,2-b:3,4-b′:5,6-b″]-tripyranyl-2,12-dione] | 49.1% | 129 to 131 °C | − | 
CCCc1cc(=O)oc2c3c(c4c(c12)OC(C)(C)C=C4)O[C@@H]1CCCC[C@H]1C3=O [Example 18, 6,6-dimethyl-4-n-propyl-10,11-trans-cyclohexyl-2H,6H,12H-benzo[1,2-b:3,4-b′:5,6-b″]-tripyranyl-2,12-dione] | 40% | 151 to 153 °C |  | IC50 [3]: 46.8 µg/mL (≈ 119 µM); MIC90 ([3]; MABA, H37Rv, read-out: MIC90): > 100 µg/mL
CC1CC(=O)c2c(c3c(c4c5c(c(=O)oc24)CCCC5)OC(C)(C)C=C3)O1 (stereo not drawn) [Example 27, 6,6,10-trimethyl-3,4-cyclohexyl-2H,6H,12H-benzo[1,2-b:3,4-b′:5,6-b″]-tripyranyl-2,12-dione] | 67% | 121 to 123 °C | − | 
CCCc1cc(=O)oc2c3c(c4c(c12)OC(C)(C)C=C4)O[C@@H]1CCCC[C@@H]1C3=O [Example 19, 6,6-dimethyl-4-n-propyl-10,11-cis-cyclohexyl-2H,6H,12H-benzo[1,2-b:3,4-b′:5,6-b″]-tripyranyl-2,12-dione] | 59.3% | 156 to 159 °C |  | IC50 [3]: 7.95 µg/mL (≈ 20.1 µM); MIC90 ([3]; MABA, H37Rv, read-out: MIC90): 11.2 µg/mL (≈ 28.5 µM)
CCCCC1C=Cc2c3c(c4oc(=O)cc(CC)c4c2O1)C(=O)CC(C)O3 (stereo not drawn) [Example 46] | 96.7% | 119 to 121 °C |  | IC50 [3]: 0.276 µg/mL (≈ 0.749 µM); MIC90 ([3]; MABA, H37Rv, read-out: MIC90): 0.716 µg/mL (≈ 1.94 µM); MIC90 [3, 4]: < 10 µg/mL
CCc1cc(=O)oc2c3c(c4c(c12)OC(C)(C)C=C4)OC(C)CC3=O (stereo not drawn) [Example 9] | 73.2% |  | − | EC50 [1]: 270 nM; Therapeutic index (TI) = 50% cytotoxicity doses/50% effective dose [1]: > 1000
